Data: ChEMBL document CHEMBL3244053, “Structural modification study of bis(substituted aminoalkylamino)anthraquinones. An evaluation of the relationship of the [2-[(2-hydroxyethyl)amino]ethyl]amino side chain with antineoplastic activity” (1979)
Activity calls are given as the source filed them. The calls are words filed in the database; no cut-off is given here.

Experiments:
P388 [1] = experiment: Antineoplastic activity against mouse P388 cells allografted in CDF1 mouse at 12.5 mg/kg qd for 9 days relative to control; format: functional
P388 [2] = experiment: Antineoplastic activity against mouse P388 cells allografted in CDF1 mouse assessed as survival at 12.5 mg/kg qd for 9 days; format: functional, organism-based; set-up: dose 12.5 mg/kg
P388 [3] = experiment: Antineoplastic activity against mouse P388 cells allografted in CDF1 mouse assessed as survival at 6.25 mg/kg qd for 9 days; format: functional, organism-based; set-up: dose 6.25 mg/kg
P388 [4] = experiment: Antineoplastic activity against mouse P388 cells allografted in CDF1 mouse at 6.25 mg/kg qd for 9 days relative to control; format: functional
P388 [5] = experiment: Antineoplastic activity against mouse P388 cells allografted in CDF1 mouse at 50 mg/kg qd for 9 days relative to control; format: functional
B16 [6] = experiment: Antineoplastic activity against mouse B16 cells allografted in BDF1 mouse at 50 mg/kg qd for 9 days relative to control; format: functional
B16 [7] = experiment: Antineoplastic activity against mouse B16 cells allografted in BDF1 mouse at 100 mg/kg qd for 9 days relative to control; format: functional
P388 [8] = experiment: Antineoplastic activity against mouse P388 cells allografted in CDF1 mouse assessed as survival at 100 mg/kg qd for 9 days; format: functional, organism-based; set-up: dose 100 mg/kg
B16 [9] = experiment: Antineoplastic activity against mouse B16 cells allografted in BDF1 mouse assessed as survival at 100 mg/kg qd for 9 days; format: functional, organism-based; set-up: dose 100 mg/kg
B16 [10] = experiment: Antineoplastic activity against mouse B16 cells allografted in BDF1 mouse assessed as survival at 25 mg/kg qd for 9 days; format: functional, organism-based; set-up: dose 25 mg/kg
P388 [11] = experiment: Antineoplastic activity against mouse P388 cells allografted in CDF1 mouse at 100 mg/kg qd for 9 days relative to control; format: functional
P388 [12] = experiment: Antineoplastic activity against mouse P388 cells allografted in CDF1 mouse assessed as survival at 50 mg/kg qd for 9 days; format: functional, organism-based; set-up: dose 50 mg/kg
B16 [13] = experiment: Antineoplastic activity against mouse B16 cells allografted in BDF1 mouse at 25 mg/kg qd for 9 days relative to control; format: functional
L1210 [14] = experiment: Antineoplastic activity against mouse L1210 cells allografted in CDF1 mouse assessed as survival at 25 mg/kg qd for 9 days; format: functional, organism-based; set-up: dose 25 mg/kg
L1210 [15] = experiment: Antineoplastic activity against mouse L1210 cells allografted in CDF1 mouse at 25 mg/kg qd for 9 days relative to control; format: functional
B16 [16] = experiment: Antineoplastic activity against mouse B16 cells allografted in BDF1 mouse assessed as survival at 50 mg/kg qd for 9 days; format: functional, organism-based; set-up: dose 50 mg/kg
P388 [17] = experiment: Antineoplastic activity against mouse P388 cells allografted in CDF1 mouse assessed as survival at 30 mg/kg qd for 9 days; format: functional, organism-based; set-up: dose 30 mg/kg
P388 [18] = experiment: Antineoplastic activity against mouse P388 cells allografted in CDF1 mouse at 30 mg/kg qd for 9 days relative to control; format: functional
P388 [19] = experiment: Antineoplastic activity against mouse P388 cells allografted in CDF1 mouse at 15 mg/kg qd for 9 days relative to control; format: functional
P388 [20] = experiment: Antineoplastic activity against mouse P388 cells allografted in CDF1 mouse assessed as survival at 25 mg/kg qd for 9 days; format: functional, organism-based; set-up: dose 25 mg/kg
P388 [21] = experiment: Antineoplastic activity against mouse P388 cells allografted in CDF1 mouse at 25 mg/kg qd for 9 days relative to control; format: functional
P388 [22] = experiment: Antineoplastic activity against mouse P388 cells allografted in CDF1 mouse assessed as survival at 15 mg/kg qd for 9 days; format: functional, organism-based; set-up: dose 15 mg/kg
B16 [23] = experiment: Antineoplastic activity against mouse B16 cells allografted in BDF1 mouse at 80 mg/kg qd for 9 days relative to control; format: functional
P388 [24] = experiment: Antineoplastic activity against mouse P388 cells allografted in CDF1 mouse at 10 mg/kg qd for 9 days relative to control; format: functional
Colon 26 [25] = experiment: Antineoplastic activity against mouse Colon 26 cells allografted in CDF1 mouse at 20 mg/kg qd for 9 days relative to control; format: functional
P388 [26] = experiment: Antineoplastic activity against mouse P388 cells allografted in CDF1 mouse assessed as survival at 20 mg/kg qd for 9 days; format: functional, organism-based; set-up: dose 20 mg/kg
B16 [27] = experiment: Antineoplastic activity against mouse B16 cells allografted in BDF1 mouse at 40 mg/kg qd for 9 days relative to control; format: functional
B16 [28] = experiment: Antineoplastic activity against mouse B16 cells allografted in BDF1 mouse assessed as survival at 40 mg/kg qd for 9 days; format: functional, organism-based; set-up: dose 40 mg/kg
L1210 [29] = experiment: Antineoplastic activity against mouse L1210 cells allografted in CDF1 mouse at 15 mg/kg qd for 9 days relative to control; format: functional
Colon 26 [30] = experiment: Antineoplastic activity against mouse Colon 26 cells allografted in CDF1 mouse at 10 mg/kg qd for 9 days relative to control; format: functional
P388 [31] = experiment: Antineoplastic activity against mouse P388 cells allografted in CDF1 mouse at 5 mg/kg qd for 9 days relative to control; format: functional
B16 [32] = experiment: Antineoplastic activity against mouse B16 cells allografted in BDF1 mouse at 10 mg/kg qd for 9 days relative to control; format: functional
P388 [33] = experiment: Antineoplastic activity against mouse P388 cells allografted in CDF1 mouse assessed as survival at 40 mg/kg qd for 9 days; format: functional, organism-based; set-up: dose 40 mg/kg
P388 [34] = experiment: Antineoplastic activity against mouse P388 cells allografted in CDF1 mouse at 20 mg/kg qd for 9 days relative to control; format: functional
L1210 [35] = experiment: Antineoplastic activity against mouse L1210 cells allografted in CDF1 mouse at 30 mg/kg qd for 9 days relative to control; format: functional
P388 [36] = experiment: Antineoplastic activity against mouse P388 cells allografted in CDF1 mouse assessed as survival at 5 mg/kg qd for 9 days; format: functional, organism-based; set-up: dose 5 mg/kg
L1210 [37] = experiment: Antineoplastic activity against mouse L1210 cells allografted in CDF1 mouse assessed as survival at 15 mg/kg qd for 9 days; format: functional, organism-based; set-up: dose 15 mg/kg
B16 [38] = experiment: Antineoplastic activity against mouse B16 cells allografted in BDF1 mouse assessed as survival at 20 mg/kg qd for 9 days; format: functional, organism-based; set-up: dose 20 mg/kg
Colon 26 [39] = experiment: Antineoplastic activity against mouse Colon 26 cells allografted in CDF1 mouse assessed as survival at 20 mg/kg qd for 9 days; format: functional, organism-based; set-up: dose 20 mg/kg
B16 [40] = experiment: Antineoplastic activity against mouse B16 cells allografted in BDF1 mouse at 20 mg/kg qd for 9 days relative to control; format: functional
P388 [41] = experiment: Antineoplastic activity against mouse P388 cells allografted in CDF1 mouse assessed as survival at 10 mg/kg qd for 9 days; format: functional, organism-based; set-up: dose 10 mg/kg
B16 [42] = experiment: Antineoplastic activity against mouse B16 cells allografted in BDF1 mouse assessed as survival at 10 mg/kg qd for 9 days; format: functional, organism-based; set-up: dose 10 mg/kg
P388 [43] = experiment: Antineoplastic activity against mouse P388 cells allografted in CDF1 mouse at 40 mg/kg qd for 9 days relative to control; format: functional
B16 [44] = experiment: Antineoplastic activity against mouse B16 cells allografted in BDF1 mouse assessed as survival at 80 mg/kg qd for 9 days; format: functional, organism-based; set-up: dose 80 mg/kg

## CCN(CC)CCC1=C(Cl)C(=O)c2ccccc2C1=O
P388 [1]
  T/C: 101%
P388 [2]
  Activity: Active
P388 [3]
  Activity: Active
P388 [4]
  T/C: 96%

## CN(C)CCOc1cccc2c1C(=O)c1ccccc1C2=O
P388 [5]
  T/C: 107%
B16 [6]
  T/C: 97%
B16 [7]
  T/C: 104%
P388 [8]
  Activity: Active
B16 [9]
  Activity: Active
B16 [10]
  Activity: Active
P388 [11]
  T/C: 109%
P388 [12]
  Activity: Active
B16 [13]
  T/C: 93%

## O=C1C=C(NCCNCCO)C(=O)c2ccccc21
P388 [5]
  T/C: 103%
P388 [11]
  T/C: 93%

## OCCNCCNc1ccnc2cc(Cl)ccc12
P388 [5]
  T/C: 116%
B16 [6]
  T/C: 99%
B16 [7]
  T/C: 110%
L1210 [14]
  Activity: Active
L1210 [15]
  T/C: 111%
P388 [8]
  Activity: Active
B16 [9]
  Activity: Active
P388 [11]
  T/C: 118%
B16 [16]
  Activity: Active
P388 [12]
  Activity: Active

## CN(C)CCC1=C(Cl)C(=O)c2ccccc2C1=O
P388 [1]
  T/C: 97%
P388 [2]
  Activity: Active
P388 [3]
  Activity: Active
P388 [4]
  T/C: 94%

## Cc1ccc(NCCNCCO)c2c(=O)c3ccccc3sc12
P388 [1]
  T/C: 113%
P388 [17]
  Activity: Active
P388 [2]
  Activity: Active
P388 [18]
  T/C: 136%
P388 [19]
  T/C: 123%
P388 [20]
  Activity: Active
P388 [21]
  T/C: 120%
P388 [22]
  Activity: Active

## CN(C)CCC1=CC(=O)c2ccccc2C1=O
P388 [5]
  T/C: 100%
P388 [11]
  T/C: 97%
P388 [12]
  Activity: Active

## CN(C)CCNc1ccc(NCCN(C)C)c2c1C(=O)c1ccccc1C2=O
B16 [23]
  T/C: 146%
P388 [24]
  T/C: 149%
Colon 26 [25]
  T/C: 113%
P388 [26]
  Activity: Active
B16 [27]
  T/C: 148%
B16 [28]
  Activity: Active
L1210 [29]
  T/C: 117%
Colon 26 [30]
  T/C: 123%
P388 [31]
  T/C: 133%
B16 [32]
  T/C: 125%
P388 [33]
  Activity: Active
P388 [34]
  T/C: 163%
L1210 [35]
  T/C: 150%
P388 [36]
  Activity: Active
L1210 [37]
  Activity: Active
B16 [38]
  Activity: Active
Colon 26 [39]
  Activity: Active
B16 [40]
  T/C: 142%
P388 [41]
  Activity: Active
B16 [42]
  Activity: Active
P388 [43]
  T/C: 202%
B16 [44]
  Activity: Active
